We go through three compounds from patent publication US12029738B2, “Antiproliferative compounds and methods of use thereof” (Celgene Corporation, priority 2017, dated 2024).

Some results are limits rather than exact numbers.

Series [1] deals with non-selective α1 adrenergic receptor. The series is described as follows: α1 adrenergic receptor radioligand binding ([3H]prazosin). Conditions: rat cerebral cortex. How it is done: (§1) α1 Adrenergic and Dopamine D2 Receptors. Methods: Binding and functional assays for α1 adrenergic and dopamine D2 receptors were performed by Eurofins Cerep according to their methods.
α1 Adrenergic Receptor. Binding at 10 μM. The binding assay evaluated the affinity of test article for the non-selective α1 adrenergic receptor in rat cerebral cortex. Membrane homogenates of cerebral cortex were incubated in duplicate for 60 minutes at room temperature with 0.25 nM [^3H]prazosin in the absence or presence of test articles at 10 μM. After the incubation period, samples were filtered through glass fiber filters, the filters dried and then counted for radioactivity using a scintillation counter. Results are expressed as mean percent inhibition of control radioligand binding.
Binding IC50. […] Compound A was tested at 0.01-30 μM. […] Compound 1 and Compound 2, the S-enantiomer of Compound 1, were assayed at 0.03-100 μM. Radioactivity was measured as described above. The IC50 was defined as the concentration causing a half-maximum inhibition of control specific binding.

The target in the next series is T1, α1A adrenergic receptor (Homo sapiens, UniProt P35348).
T1 construct: host or cells: CHO cells
T1 sequence (P35348 1-466): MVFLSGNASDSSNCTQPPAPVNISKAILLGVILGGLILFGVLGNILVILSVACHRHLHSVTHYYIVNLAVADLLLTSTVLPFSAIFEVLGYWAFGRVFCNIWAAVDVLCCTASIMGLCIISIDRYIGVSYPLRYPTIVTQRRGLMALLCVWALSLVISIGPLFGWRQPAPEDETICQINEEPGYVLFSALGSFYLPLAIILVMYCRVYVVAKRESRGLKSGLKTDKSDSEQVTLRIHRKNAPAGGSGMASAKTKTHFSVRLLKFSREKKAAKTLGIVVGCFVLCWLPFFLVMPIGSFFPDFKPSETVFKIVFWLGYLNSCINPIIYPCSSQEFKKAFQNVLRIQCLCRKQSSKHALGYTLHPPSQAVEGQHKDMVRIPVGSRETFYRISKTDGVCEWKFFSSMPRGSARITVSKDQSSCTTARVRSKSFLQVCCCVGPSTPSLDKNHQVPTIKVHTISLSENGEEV
The series is described as follows: α1A adrenergic receptor antagonist assay (calcium mobilization, CHO cells). As to conditions: epinephrine 3 nM; calcium mobilization; read-out: Antagonism IC50 α1A. The format is cell-based. How it is done:
as §1
Antagonist activity. The antagonistic effects of test compounds on the α1A and α1B adrenergic receptors were measured using human receptor-transfected Chinese hamster ovary (CHO) cells. Antagonist activity was determined by measuring compound effect on agonist (epinephrine)-induced calcium mobilization in the α1A receptor assay or cAMP levels in the α1B receptor assay. In these experiments, CHO cells were incubated in duplicate at room temperature with test article and epinephrine at 3 nM in the α1A receptor assays or at 3000 nM in the α1B receptor assay. Compound A was tested in the α1A receptor assay at 0.01-30 μM. […] Compound 1 and Compound 2 were assayed at 0.03 to 30 μM in the α1A receptor assay and 0.03 to 100 μM in the α1B receptor assay. In the α1A receptor assay, cytosolic calcium levels were measured fluorometrically using the fluorescent probe, Fluo4 Direct. Intracellular cAMP levels in the α1B adrenergic receptor assay were measured by homogenous time-resolved fluorescence (HTRF). The antagonism IC50 was defined as the concentration causing a half-maximum inhibition of control agonist response.
(In general: A change in cytosolic calcium serves as a functional read-out for many receptors and channels.)

Series [2] addresses T2, dopamine D2S receptor (Homo sapiens, UniProt P14416).
T2 construct: host or cells: HEK-293 cells (membrane homogenates)
The series is described as follows: Dopamine D2S receptor radioligand binding (HEK-293). How it is done:
as §1
Dopamine D2 Receptor. Binding at 10 μM. The binding assay evaluated the affinity of test articles for the dopamine D2 receptor in transfected human embryonic kidney (HEK)-293 cells. For determining the binding in the D2S receptor assay, test article was incubated with 0.3 nM [^3H] methylspiperone or 1 nM [^3H] 7-hydroxy-2-N,N-dipropylaminotetralin (7-OH-DPAT). [3H] Methylspiperone at 0.3 nM also was used as control ligand in the D2L binding assay. Cell membrane homogenates were incubated in duplicate at room temperature for 60 minutes with ligand in the absence or presence of test articles at 10 μM. After the incubation period, samples were filtered through glass fiber filters, the filters dried and then counted for radioactivity using a scintillation counter. Results are expressed as mean percent inhibition of control radioligand binding.
Binding IC50. To determine the binding IC50 in the D2 receptor assays, HEK-293 were tested as described above but with varying concentrations of test article. Compound A was tested at 0.01-30 μM in the D2S radioligand binding assay. […] Compound 1 was assayed at 0.03-100 μM in both the D2S and D2L assays, while Compound 2 was tested at 0.03-100 μM in the D2S assay and 0.01-100 μM in the D2L assays. The IC50 was defined as the concentration causing a half-maximum inhibition of control specific binding.

The target in series [3] is T2, dopamine D2S receptor. The experiment in a line: Dopamine D2S receptor agonist assay (impedance, HEK-293). As to conditions: impedance; versus dopamine control; read-out: D2S Agonism EC50. Format: cell-based. On the procedure:
as §1
Agonist activity. The agonism of test compounds on the dopamine D2S receptor was assessed using human receptor-transfected HEK-293 cells. Agonist activity was determined by measuring compound effect on impedance modulation. In these experiments, HEK-293 cells were incubated in duplicate at 28° C. with test article. Compound A was tested at 0.01-30 μM. […] Dopamine (3 μM) was used as an agonist control. Impedance measurements were monitored for 10 minutes after ligand addition using cellular dielectric spectroscopy. The EC50 was defined as the concentration causing a half-maximum response, compared to the control agonist (dopamine) response.

Another series in a line: in vivo. As to conditions: rat. On the procedure:
7-Day Exploratory Toxicology Studies in Male Rats. Methods. Male CD-IGS rats (n=5/group for toxicologic assessment; n=4/group for toxicokinetic assessment) were dosed once daily by oral gavage (10 mL/kg) with vehicle (0.5% HPMC/0.25% Tween-80 in 50 mM citrate, pH 2.6-2.8) or test articles (Compound A or Compound 1) at 100, 300 or 1000 mg/kg/day for 7 consecutive days. Blood samples for toxicokinetics were collected on Days 1 and 7. […] Body weight was recorded at randomization, prior to dosing on Days 1-7 and prior to necropsy. Samples for hematology and serum chemistry analyses were collected on Day 8, approximately 24 h after the last dose. Rats were euthanized on Day 8 for necropsy. Anatomic pathology evaluation consisted of gross observation, organ weight and histopathologic examination of select tissues.

Series [4] relates to neutrophil progenitors (BM CD34+ cells from healthy donors). The series is described as follows: In vitro maturation of neutrophil progenitors, dexamethasone alone and with Compound 2. On the procedure: Methods. To understand the effects of dexamethasone on neutropenia, in vitro cultures of BM CD34^+ cells from healthy donors were used to evaluate the neutropenic events mediated by dexamethasone as a single agent and in combination with Compound 2. To define the effects of dexamethasone monotherapy in this model, 1, 10, or 100 nM dexamethasone exposure was maintained for 30 h comparing 7 different dosing schedules (FIG. 11). For combination studies, single exposure Compound 2 (1, 10, or 100 nM) and dexamethasone were maintained for 6 and 30 h, respectively, starting at Day 13 of culture.

The subject of series [5] is lenalidomide-resistant NCI-H929 (H929-1051) multiple myeloma/plasmacytoma tumors. The experiment in a line: H929-1051 xenograft, Compound 2 alone and with dexamethasone. Format: in vivo, mouse. Conditions: single agent dexamethasone 0.5 mg/kg oral once daily.
The subject of series [6] is multiple myeloma and plasma cell leukemia cell lines (OPM2.P10, RPMI.8226, L363, JJN-3). The experiment in a line: Combination with proteasome inhibitor pulse (flow cytometry, 72 h). As to conditions: L363; 1 h pulse. The format is cell-based, human. A general note: A flow cytometer gives signals particle by particle.
Procedure: Twenty four hours prior to treatment with a proteasome inhibitor and test compound, an appropriate number of cells were split to a concentration of 0.2×10^6/mL in fresh media to allow for exponential growth. On the day of treatment, compounds were freshly solvated in DMSO. Proteasome inhibitors bortezomib or carfilzomib were diluted and added to pre-warmed culture media at the final working concentrations of 150 nM or 300 nM for bortezomib and 300 nM or 550 nM for carfilzomib. Proteasome inhibitor concentrations were determined based upon clinical Cmax concentrations as well as previous studies in each cell line which determined the duration and concentration of PI required to inhibit a specific amount of β5 proteasome activity. Cells were counted and an appropriate number were placed into media containing proteasome inhibitor and thoroughly mixed. After incubation for 1 h at 37° C., 5% CO2, cells were washed two times with 40 mL of complete media to remove the proteasome inhibitor. […] Plated cells were cultured at 37° C., 5% C02, for the remainder of the experiment, up to 72 h. Every 24 h, proteasome inhibition was monitored by the Cell-Based Proteasome-Glo Assay. Proliferation and apoptosis were measured at 72 h by flow cytometry. Cells were stained with APC Annexin-V and 7-AAD to enumerate the number of viable cells remaining in culture.
An in vitro cell assay was established in order to mimic the clinical pharmacokinetics (PK) and pharmacodynamics (PD) of exposure to proteasome inhibitors bortezomib and carfilzomib.
For series [7], the system named is lenalidomide-resistant NCI-H929 (H929-1051) multiple myeloma/plasmacytoma tumors. The experiment in a line: H929-1051 xenograft, Compound 2 alone and with bortezomib. Format: in vivo, mouse.

T2 sequence (P14416 1-414 isoform P14416-2): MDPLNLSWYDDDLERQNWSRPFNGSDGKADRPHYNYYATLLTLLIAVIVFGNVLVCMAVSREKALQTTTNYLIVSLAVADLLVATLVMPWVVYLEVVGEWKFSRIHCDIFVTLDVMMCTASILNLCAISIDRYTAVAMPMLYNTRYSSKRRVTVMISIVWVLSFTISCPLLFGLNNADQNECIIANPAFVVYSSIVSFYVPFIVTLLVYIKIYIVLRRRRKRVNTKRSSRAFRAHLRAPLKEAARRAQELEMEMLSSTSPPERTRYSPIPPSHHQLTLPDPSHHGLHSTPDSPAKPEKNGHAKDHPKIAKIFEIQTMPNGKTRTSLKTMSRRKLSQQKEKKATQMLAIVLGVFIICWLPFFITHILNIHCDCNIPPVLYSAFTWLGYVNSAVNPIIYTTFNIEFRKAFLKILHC

For the compound `O=C1CCC(N2Cc3c(OCc4ccc(CN5CCN(c6ccc(F)cc6F)CC5)cc4)cccc3C2=O)C(=O)N1` (racemic) [Compound A, 3-(4-((4-((4-(2,4-difluorophenyl)piperazin-1-yl)methyl)benzyl)oxy)-1-oxoisoindolin-2-yl)piperidine-2,6-dione], the “Adrenergic α1 (non-selective) % Inhibition (10 μM)” value in [1] (10 μM, 0.25 nM [3H]prazosin) was 102%. Further, the half-maximal inhibitory concentration (IC50) – broadly, the concentration at which inhibition is half-maximal – in [1] ([3H]prazosin) stood at 64 nM; on α1A adrenergic receptor, 14 nM; at dopamine D2S receptor [2] (read-out: D2S Binding IC50), 150 nM. Moreover, at dopamine D2S receptor [2] (read-out: Dopamine D2S % Inhibition (10 μM)), the inhibition (in general, the percentage by which the read-out fell short of the control) at 10 µM is 99%. The EC50 (commonly the concentration giving half of the maximal effect) at dopamine D2S receptor [3] amounted to 16 nM. The AUC(0-t) (in general, exposure summed from dosing to a finite time, without extrapolation to infinity) in the series “in vivo” (male, CD-IGS, po, 100 mg/kg/day) turned out to be 441 µM·h; in “in vivo” (male, CD-IGS, po, 300 mg/kg/day), 1230 µM·h; in “in vivo” (male, CD-IGS, po, 1000 mg/kg/day), 1760 µM·h. Moreover, the “dose at which abnormal stomach content (dry, feed material) was observed grossly” value in the series “in vivo” (male, CD-IGS, po, 7 days) was ≥ 100 mg/kg. Also, the “dose at which clinical signs of toxicity (hunched posture, piloerection, decreased activity) and decreased body weight were observed” value in the series “in vivo” (male, CD-IGS, po, 7 days) is recorded as ≥ 300 mg/kg. Also, the “test article-related microscopic findings” value in the series “in vivo” was “minimal multifocal myocardial necrosis and mixed cell infiltration in hearts of rats at all dose levels”.
In the case of `C[C@@H]1C[C@H]2[C@@H]3CCC4=CC(=O)C=C[C@]4(C)[C@@]3(F)[C@@H](O)C[C@]2(C)[C@@]1(O)C(=O)CO` [Dexamethasone, dexamethasone], the “viability of immature and mature neutrophils” value in [4] (alone or in combination) is given as “not affected”. The “maturation of neutrophil progenitors / late-stage neutrophil precursors” value in series [4] (single agent, 1, 10, 100 nM, dexamethasone 30 h, Compound 2 6 h) is given as “not affected”. For the same compound, the “tumor growth inhibition / tumor volume reduction (TVR)” value in series [5] is listed as 20%.
Regarding `CC(C)C[C@H](NC(=O)[C@H](Cc1ccccc1)NC(=O)c1cnccn1)B(O)O` [bortezomib], the “single agent activity on cell viability” value in series [6] is recorded as “no single agent activity on cell viability”. In addition, the “tumor growth inhibition / tumor volume reduction (TVR)” value in [7] (single agent bortezomib 1 mg/kg iv single dose day 31, day 50) was 60%. In series [7] (single agent, 1 mg/kg), the “day by which tumors reached approximately 2000 mm^3” value amounted to 66 days.
